# Measurements as given in US20090124502A1, “USE OF SULFURYL FLUORIDE AS A SPROUT […]” (Dow AgroSciences LLC, priority 2007, published 2009).
# Assays:
# Assay type in all cases: in vivo, Solanum tuberosum
# [1] = test system: Russet potatoes; test: Sulfuryl fluoride fumigation of Russet potatoes, physical and sprouting observations (Example 1); parameters: key to Tuber Firmness: 1 = firm; 2 = slightly spongy; 3 = very spongy, probably rotten
# Protocol: (§1) Russet and red potatoes were purchased from an organic retail store and used for this study. These potatoes were exposed to 4 treatments (0 gram-hour/cubic meter [g-h/m^3], 500 g-h/m^3, 1000 g-h/m^3 and 1500 g-h/m^3) in a Styrofoam™ fumigation chamber. The exposure time was 12 hrs at ambient temperature of approximately 25° C. and relative humidity of 50 percent.
# [2] = test system: Red potatoes; test: Sulfuryl fluoride fumigation of Red potatoes, physical and sprouting observations (Example 1); parameters: key to Tuber Firmness: 1 = firm; 2 = slightly spongy; 3 = very spongy, probably rotten
# Protocol: as §1
# [3] = test system: Russet Burbank potatoes; test: Sulfuryl fluoride fumigation of stored Russet Burbank potatoes, physical and sprouting observations (Example 2)
# Protocol: A second study was conducted using stored Russet Burbank potatoes. These potatoes were exposed to 3 treatments (O g-h/m3, 300 g-h/m^3, and 500 g-h/m^3) in a Styrofoam™ fumigation chamber. The exposure time was 12 hrs at ambient temperature of approximately 25° C. and relative humidity of 50 percent. The treatments were replicated 3 times. Each replicate had approximately 10 lbs of potatoes.
# [4] = test system: organic Russet potatoes; test: Sulfuryl fluoride fumigation of stored organic Russet potatoes, physical and sprouting observations (Example 3); parameters: Avg Length of sprouts: unit not given here
# Protocol: A third study was conducted using stored organic Russet potatoes. These potatoes were exposed to […] (0 g-h/m3, 50 g-h/m^3, 100 g-h/m^3 150 g-h/m^3 and 200 g-h/m^3) in a Styrofoam™ fumigation chamber. The exposure time was 12 hrs at ambient temperature of approximately 25° C. and relative humidity of 50 percent. The treatments were replicated 3 times. Each replicate had approximately 5 lbs of potatoes.
# [5] = 500 g-h/m^3, 12 hrs exposure, 1 week after exposure
# [6] = 500 g-h/m^3, 12 hrs exposure, 2 weeks after exposure
# [7] = 500 g-h/m^3, 12 hrs exposure, 3 weeks after exposure
# [8] = 1000 g-h/m^3, 12 hrs exposure, 1 week after exposure
# [9] = 1000 g-h/m^3, 12 hrs exposure, 2 weeks after exposure
# [10] = 1500 g-h/m^3, 12 hrs exposure, 1 week after exposure
# [11] = 1500 g-h/m^3, 12 hrs exposure, 2 weeks after exposure
# [12] = 500 g-h/m^3, 12 hrs exposure, 10 weeks after exposure
# [13] = 300 g-h/m^3, 6 days after exposure, mean of 3 plots
# [14] = 300 g-h/m^3, 6 days after exposure, single plots (replicates)
# [15] = 300 g-h/m^3, 9 days after exposure, mean
# [16] = 500 g-h/m^3, 6 days after exposure, mean of 3 plots
# [17] = 500 g-h/m^3, 6 days after exposure, single plots (replicates)
# [18] = 500 g-h/m^3, 9 days after exposure, mean
# [19] = 50 g-h/m^3, 7 days after exposure
# [20] = 50 g-h/m^3, 21 days after exposure
# [21] = 50 g-h/m^3, 31 days after exposure
# [22] = 100 g-h/m^3, 7 days after exposure
# [23] = 100 g-h/m^3, 21 days after exposure
# [24] = 100 g-h/m^3, 31 days after exposure
# [25] = 150 g-h/m^3, 7 days after exposure
# [26] = 150 g-h/m^3, 21 days after exposure
# [27] = 150 g-h/m^3, 31 days after exposure
# [28] = 200 g-h/m^3, 7 days after exposure
# [29] = 200 g-h/m^3, 21 days after exposure
# [30] = 200 g-h/m^3, 31 days after exposure
structure (smiles),measurement,setting,value
O=S(=O)(F)F [sulfuryl fluoride],Average length of sprout,[1]; [5],<1 mm
same,Avg. No. of Sprouts,[1]; [5],1.4
same,Tuber Firmness,[1]; [5],1
same,Average length of sprout,[1]; [6],<1 mm
same,Avg. No. of Sprouts,[1]; [6],1.4
same,Tuber Firmness,[1]; [6],1
same,Average length of sprout,[1]; [7],<3 mm
same,Avg. No. of Sprouts,[1]; [7],1.4
same,Tuber Firmness,[1]; [7],2
same,Average length of sprout,[1]; [8],<1 mm
same,Avg. No. of Sprouts,[1]; [8],0.3
same,Tuber Firmness,[1]; [8],1
same,Average length of sprout,[1]; [9],<1 mm
same,Avg. No. of Sprouts,[1]; [9],0.3
same,Tuber Firmness,[1]; [9],1
same,Average length of sprout,[1]; [10],0 mm
same,Avg. No. of Sprouts,[1]; [10],0
same,Tuber Firmness,[1]; [10],3
same,Average length of sprout,[1]; [11],0 mm
same,Avg. No. of Sprouts,[1]; [11],0
same,Tuber Firmness,[1]; [11],3
same,Average length of sprout,[2]; [5],0 mm
same,Avg. No. of Sprouts,[2]; [5],0
same,Tuber Firmness,[2]; [5],1
same,Average length of sprout,[2]; [6],0 mm
same,Avg. No. of Sprouts,[2]; [6],0
same,Tuber Firmness,[2]; [6],1
same,Avg. No. of Sprouts,[2]; [7],1.5
same,Tuber Firmness,[2]; [7],1
same,Avg. No. of Sprouts,[2]; [12],1.5
same,Tuber Firmness,[2]; [12],1
same,Average length of sprout,[2]; [8],0 mm
same,Avg. No. of Sprouts,[2]; [8],0
same,Tuber Firmness,[2]; [8],2
same,Average length of sprout,[2]; [9],0 mm
same,Avg. No. of Sprouts,[2]; [9],0
same,Tuber Firmness,[2]; [9],2
same,Average length of sprout,[2]; [10],0 mm
same,Avg. No. of Sprouts,[2]; [10],0
same,Tuber Firmness,[2]; [10],3
same,Average length of sprout,[2]; [11],0 mm
same,Avg. No. of Sprouts,[2]; [11],0
same,Tuber Firmness,[2]; [11],3
same,Avg Length of sprouts,[3]; [13],0.0 b MM
same,Tuber Firmness,[3]; [13],0.0 a 0-3
same,Avg Length of sprouts,[3]; [14],0.0 MM
same,Avg. Number of sprouts,[3]; [14],0.00
same,Tuber Firmness,[3]; [14],0.0 0-3
same,Number of Sprouts,"[3]; 300 g-h/m^3, 6 days after exposure, single plots (replicates), 10 pounds",0.0
same,Avg Length of sprouts,[3]; [15],0.0 b
same,Avg. Number of sprouts,[3]; [15],0.00 b
same,Number of Sprouts,[3]; [15],0.0 b
same,sprout growth,"[3]; 300 g-h/m^3 and 500 g-h/m^3 treatments, Table 10 and 11 (6 and 9 days after exposure)",stopped sprouts from growing
same,Avg Length of sprouts,[3]; [16],0.0 b MM
same,Tuber Firmness,[3]; [16],0.0 a 0-3
same,Avg Length of sprouts,[3]; [17],0.0 MM
same,Avg. Number of sprouts,[3]; [17],0.00
same,Tuber Firmness,[3]; [17],0.0 0-3
same,Number of Sprouts,"[3]; 500 g-h/m^3, 6 days after exposure, single plots (replicates), 10 pounds",0.0
same,Avg Length of sprouts,[3]; [18],0.0 b
same,Avg. Number of sprouts,[3]; [18],0.00 b
same,Number of Sprouts,[3]; [18],0.0 b
same,sprout growth,"[4]; 50 g-h/m^3, 21 DAT, compared to 150 and 200 g-h/m^3 treatments",significant sprout growth
same,Avg Length of sprouts,[4]; [19],1.1
same,Avg. Number of sprouts,[4]; [19],3.00
same,Number of Sprouts,[4]; [19],60.0
same,Tuber Firmness,[4]; [19],0.0 MM
same,Avg Length of sprouts,[4]; [20],9.1
same,Avg. Number of sprouts,[4]; [20],6.3
same,Number of Sprouts,[4]; [20],126.0
same,Tuber Firmness,[4]; [20],1.0 MM
same,Avg Length of sprouts,[4]; [21],21.1
same,Avg. Number of sprouts,[4]; [21],6.3
same,Number of Sprouts,[4]; [21],126.0
same,Tuber Firmness,[4]; [21],2.0 MM
same,sprout inhibition,"[4]; 50 to 200 g-h/m^3, Table 13 (21 days after exposure)",dose dependent
same,sprout growth,"[4]; 100 g-h/m^3, 21 DAT, compared to 150 and 200 g-h/m^3 treatments",significant sprout growth
same,Avg Length of sprouts,[4]; [22],1.0
same,Avg. Number of sprouts,[4]; [22],1.9
same,Number of Sprouts,[4]; [22],52.0
same,Tuber Firmness,[4]; [22],0.0 MM
same,Avg Length of sprouts,[4]; [23],6.5
same,Avg. Number of sprouts,[4]; [23],2.4
same,Number of Sprouts,[4]; [23],88.0
same,Tuber Firmness,[4]; [23],1.0 MM
same,Avg Length of sprouts,[4]; [24],16.5
same,Avg. Number of sprouts,[4]; [24],2.4
same,Number of Sprouts,[4]; [24],88.0
same,Tuber Firmness,[4]; [24],1.0 MM
same,sprout growth,"[4]; 150 g-h/m^3, 7 DAT",slight sprout growth
same,sprout growth,"[4]; 150 g-h/m^3, 21 DAT observations",did not grow further
same,Avg Length of sprouts,[4]; [25],0.2
same,Avg. Number of sprouts,[4]; [25],0.3
same,Number of Sprouts,[4]; [25],17.0
same,Tuber Firmness,[4]; [25],0.0 MM
same,Avg Length of sprouts,[4]; [26],0.2
same,Avg. Number of sprouts,[4]; [26],0.3
same,Number of Sprouts,[4]; [26],17.0
same,Tuber Firmness,[4]; [26],0.0 MM
same,Avg Length of sprouts,[4]; [27],1.2
same,Avg. Number of sprouts,[4]; [27],0.3
same,Number of Sprouts,[4]; [27],17.0
same,Tuber Firmness,[4]; [27],0.0 MM
same,Avg Length of sprouts,[4]; [28],0
same,Avg. Number of sprouts,[4]; [28],0
same,Number of Sprouts,[4]; [28],0
same,Tuber Firmness,[4]; [28],0.0 MM
same,Avg Length of sprouts,[4]; [29],0
same,Avg. Number of sprouts,[4]; [29],0
same,Number of Sprouts,[4]; [29],0
same,Tuber Firmness,[4]; [29],0.0 MM
same,Avg Length of sprouts,[4]; [30],0
same,Avg. Number of sprouts,[4]; [30],0
same,Number of Sprouts,[4]; [30],0
same,Tuber Firmness,[4]; [30],0.0 MM
same,phyto-toxic effects,"[4]; 200 g-h/m^3, after 31 days",without any phyto-toxic effects
same,sprout inhibition,"[4]; 200 g-h/m^3, after 31 days",best sprout inhibition
same,"peel testing, black spot",[4]; all treatments of the study (50 to 200 g-h/m^3),none of the treatments used in this study produced the black spot
